{"source": "paper PMC7719179", "about": "“Small molecule inhibition of Dynamin-dependent endocytosis targets multiple niche signals and impairs leukemia stem cells” (Nature Communications, 2020)", "key": {"[1]": {"tested_on": "IL-7R at the surface of Ba/F3-IL7R cells", "assay": "Surface expression of IL-7R on Ba/F3-IL7R cells (flow cytometry)", "assay_type": "cell-based, murine", "settings": "replicates", "protocol": "Ba/F3 cells (kindly provided by a person from The Walter and Eliza Hall Institute of Medical Research) were infected with pMIG-R1/Il7r retroviral supernatants produced in 293T cells, and transduced cells were sorted with a BD Influx (BD Australia) and selected by culture in medium supplemented with 5 ng/mL rmIL-7 (#217-17, Pepro Tech, Rocky Hill NJ, USA) for 7 days. Ba/F3 cells stably expressing Il7r (Ba/F3-IL7R) were infected with TxTCPVIR-Stat5-CA retroviral supernatants produced in 293T. Cell sorting was performed with a BD Influx and transduced cells were treated with doxycycline for 48 h to induce the expression of the Stat5-CA-T2A-mCherry fusion protein.\nFlow cytometry analyses were performed as previously described[10],[86] on single-cell suspensions stained using BD Pharmingen antibodies (BD Australia, North Ryde NSW, Australia) against mouse CD4 (RM4-5), CD8 (53-6.7), CD25 (PC61.5), CD44 (IM7), CD45.1 (A20), CD45.2 (104), Thy1.2 (53-2.1; #561616), TCRβ (H57-597), CD117 (ACK45), CD135 (A2F10.1), CD150 (TC15-12F12.2; #562373), B220 (RA3-6B2; #563708), CD3 (145-2C11; #563004), CD19 (ID3; #557655), Gr-1 (RB6-8C5; #563299 and #565033), CD11b (M1/70; #563015 and #560455), Ter119 (Ter119; #565523 and #557909), Sca-1 (D7; #558160) and an eBioscience antibody (eBioscience, Invitrogen) against mouse NOTCH1 (22E5). DN3 populations and IL-7R were stained using BioLegend antibodies (Australian Biosearch, Balcatta WA, Australia) against mouse CD28 (E18) and CD127 (A7R34), respectively. Apoptosis was measured using an antibody against AnnexinV (#556420, BD Australia) and the […] Sytox Blue (BD Australia) following the manufacturer’s protocol.\nFor in vitro IL-7 stimulation assays, cells were starved in serum-free DMEM at 37 °C, then incubated with either vehicle or Dynole 34-2 or Ruxolitinib (INCB018424; #S1378, Selleckchem), or DAPT (GSI-IX; #S2215, Selleckchem) resuspended in DMSO for 1 h. Thymocytes were subsequently stimulated with 25 ng/mL IL-7 at 37 °C for 20 min and washed twice using cold PBS 1×. Cells were incubated with 25 ng/mL Rat IgG (Sigma-Aldrich Pty Ltd, Castle Hill NSW, Australia) and with a PE-conjugated antibody for detection of IL-7R (CD127) for 1 h on ice, as described in the FACS analysis section. PE-conjugated isotype was used as negative control. Cells were washed twice, fixed and phosphoflow analysis performed as described in the FACS analysis section. The analysis was performed in triplicate and the mean fluorescence intensity (MFI) observed without stimulation was reported as 100%."}, "[2]": {"tested_on": "pre-LSC self-renewal activity", "assay": "Fold expansion after transplantation of DN3a thymocytes from treated Lmo2^Tg mice", "assay_type": "in vivo, mouse", "settings": "recipients of DN3a thymocytes from treated Lmo2^Tg mice; individual animals", "protocol": "Single-cell suspension of murine thymus cells were intravenously injected into sublethally irradiated (650 Rads) isogenic Ly5.1 (Cd45.1) mice. Fold expansion was calculated by dividing the absolute output number of donor-derived DN3a cells harvested at the experimental endpoint by the respective number of DN3a thymocytes injected in each recipient. Limiting dilution transplantations were performed as described, by injecting various doses (10^1 to 10^6) of thymocytes per recipient, and mice were scored positive when T-cell lineage reconstitution assessed 6 weeks after transplantation was >1%. Leukemia-propagating cell frequency was calculated by applying Poisson statistics using the ELDA: Extreme Limiting Dilution Analysis software (Walter and Eliza Hall Institute Bioinformatics, Parkville VIC, Australia)[96]. Limiting dilution transplantations were performed independently from any other transplantation assays, using thymocytes from three different Lmo2^Tg mice for each cohort. Kaplan–Meier survival and statistical analysis were performed using GraphPad Prism. 6.0 software (GraphPad Software Inc, San Diego CA, USA)."}, "[3]": {"assay": "Clonogenic assay of human CD34-positive HSPCs from healthy donors, 10 days (LC50)", "assay_type": "cell-based", "set-up": "Relative number of colonies (% DMSO): unit of the concentration uncertain", "settings": "human", "procedure": "(§1) Cultures were incubated at 37 °C in 10% CO2 for 10 days in presence of 10 μg/mL rhIL-3 (#200-03, Pepro Tech), 25 μg/mL rhSCF (#300-07, Pepro Tech), 25 μg/mL rhFLT3-L (#300-19, Pepro Tech), rhIL-6 (#200-06, Pepro Tech), 500 nM StemRegenin 1 (SR1; #1227633-49-9, Stem Cell Technologies) and 35 nM UM-171 (#72914, Stem Cell Technologies)[93],[94], then stained with acetyl-cholinesterase and counted for the number of colonies."}, "[4]": {"tested_on": "normal human CD34-positive HSPCs", "assay": "Clonogenic assay of human CD34-positive HSPCs from healthy donors, 10 days (LC50)", "assay_type": "cell-based", "set-up": "Relative number of colonies (% DMSO): unit of the concentration uncertain", "procedure": "as §1"}}, "note": "Where “and” joins values, the source holds several entries; their conditions need not be identical. Equal values may be shown once."}
{"smiles": "CCCCCCCCNC(=O)C(C#N)=Cc1cn(CCCN(C)C)c2ccccc12", "note": "[Dynole 34-2, 2-Cyano-N-octyl-3-(1-(3-dimethylaminopropyl)-1H-indol-3-yl)-acrylamide]", "values": [{"measurement": "IL-7R (MFI)", "setting": "[1]; +IL-7, Dynole 34-2 0.2 µM", "value": "6459 MFI and 6071 MFI and 5354 MFI and 5835 MFI and 6042 MFI and 5962 MFI"}, {"measurement": "IL-7R (MFI)", "setting": "[1]; +IL-7, Dynole 34-2 1.0 µM", "value": "6945 MFI and 7094 MFI and 7005 MFI and 6255 MFI and 6778 MFI and 5501 MFI"}, {"measurement": "IL-7R (MFI)", "setting": "[1]; +IL-7, Dynole 34-2 5.0 µM", "value": "8484 MFI and 8092 MFI and 6662 MFI and 7158 MFI and 8274 MFI and 7535 MFI"}, {"measurement": "IL-7R (MFI)", "setting": "[1]; +IL-7, Dynole 34-2 10.0 µM", "value": "7753 MFI and 8175 MFI and 8231 MFI and 7570 MFI"}, {"measurement": "IL-7R (MFI)", "setting": "[1]; +IL-7, Dynole 34-2 25.0 µM", "value": "9215 MFI and 8603 MFI and 7481 MFI and 8221 MFI and 8215 MFI and 7582 MFI"}, {"measurement": "Fold expansion DN3a cells", "setting": "[2]", "value": "3.5 fold and 2.36 fold and 9.11 fold and 4.77 fold and 13.12 fold and 6.34 fold and 25.03 fold and 63.73 fold and 32.46 fold"}, {"measurement": "CC50 at 10 days", "setting": "[3]; normal human CD34-positive HSPCs, clonogenic assay 10 days, Mean ± SEM", "value": "23 ± 5.72", "unit": "µM"}, {"measurement": "CC50 at 10 days", "setting": "[3]; sample 06-02-2018 CD34", "value": 8.8, "unit": "µM"}, {"measurement": "CC50 at 10 days", "setting": "[3]; sample 10-03-2018 CD34", "value": 9.85, "unit": "µM"}, {"measurement": "CC50 at 10 days", "setting": "[3]; sample 18/03/2016 CD34", "value": 7.09, "unit": "µM"}, {"measurement": "CC50 at 10 days", "setting": "[3]; sample 21-04-2018 CD34", "value": 7.34, "unit": "µM"}, {"measurement": "CC50 at 10 days", "setting": "[3]; sample 22/05/2018 CD34", "value": 17.2, "unit": "µM"}, {"measurement": "CC50 at 10 days", "setting": "[3]; sample 24/06/2016 CD34", "value": 11.3, "unit": "µM"}, {"measurement": "Relative number of colonies (% DMSO)", "setting": "[4]; CD34_1003, dose 0.04 (unit uncertain)", "value": "99.5 % DMSO and 94.6 % DMSO"}, {"measurement": "Relative number of colonies (% DMSO)", "setting": "[4]; CD34_1003, dose 0.2 (unit uncertain)", "value": "88.8 % DMSO and 76.1 % DMSO"}, {"measurement": "Relative number of colonies (% DMSO)", "setting": "[4]; CD34_1003, dose 1 (unit uncertain)", "value": "82.9 % DMSO and 71.2 % DMSO"}, {"measurement": "Relative number of colonies (% DMSO)", "setting": "[4]; CD34_1003, dose 5 (unit uncertain)", "value": "48.8 % DMSO and 56.6 % DMSO"}, {"measurement": "Relative number of colonies (% DMSO)", "setting": "[4]; CD34_1003, dose 25 (unit uncertain)", "value": 0.0, "unit": "% DMSO"}, {"measurement": "Relative number of colonies (% DMSO)", "setting": "[4]; CD34_1602, dose 0.04 (unit uncertain)", "value": "116.1 % DMSO and 109.5 % DMSO"}, {"measurement": "Relative number of colonies (% DMSO)", "setting": "[4]; CD34_1602, dose 0.2 (unit uncertain)", "value": "118.9 % DMSO and 100.0 % DMSO"}, {"measurement": "Relative number of colonies (% DMSO)", "setting": "[4]; CD34_1602, dose 1 (unit uncertain)", "value": "106.3 % DMSO and 87.8 % DMSO"}, {"measurement": "Relative number of colonies (% DMSO)", "setting": "[4]; CD34_1602, dose 5 (unit uncertain)", "value": "89.5 % DMSO and 73.0 % DMSO"}, {"measurement": "Relative number of colonies (% DMSO)", "setting": "[4]; CD34_1602, dose 25 (unit uncertain)", "value": 0.0, "unit": "% DMSO"}, {"measurement": "Relative number of colonies (% DMSO)", "setting": "[4]; CD34_2104, dose 0.04 (unit uncertain)", "value": 102.6, "unit": "% DMSO"}, {"measurement": "Relative number of colonies (% DMSO)", "setting": "[4]; CD34_2104, dose 0.2 (unit uncertain)", "value": "104.6 % DMSO and 97.4 % DMSO"}, {"measurement": "Relative number of colonies (% DMSO)", "setting": "[4]; CD34_2104, dose 1 (unit uncertain)", "value": "68.7 % DMSO and 76.9 % DMSO"}, {"measurement": "Relative number of colonies (% DMSO)", "setting": "[4]; CD34_2104, dose 25 (unit uncertain)", "value": 0.0, "unit": "% DMSO"}]}
